One data set concerns hepatocytes. Type of data set: cell-based. On the procedure: An experiment similar to that described in Example 1 was performed, using hepatocytes rather than endothelial cells.
For data set [1], the system named is bovine aortic endothelial cells (BAECs). In words: Hyperglycemia-induced intracellular ROS (CM-H2DCFDA) in cultured vascular endothelial cells. Type of data set: cell-based. The procedure: Cell culture conditions. For reactive oxygen species (RO) measurement, bovine aortic endothelial cells (BAECs, passage 4-10) were plated in 96 well plates at 100,000 cells/well in Eagle's MEM containing 10% FBS, essential and nonessential amino acids, and antibiotics. Cells were incubated with either 5 mM glucose, 30 mM glucose, 30 mM glucose plus 10 nM GLP-1 (7-36), 30 mM glucose plus 10 nM GLP-1 (7-36), 30 mM glucose plus 10 nM GLP-1 (7-36) plus 10 μM pyrrolidide (a DPP IV inhibitor), 30 mM glucose plus 10 nM GLP-1 (7-36) plus 10 μM pyrrolidide and 100 μM phosphoramidon (a neutral endopeptidase 24.11 inhibitor), and 30 mM glucose plus GLP-1 (9-36) plus 10 nM exendin 9-39, a blocker of the GLP-1 (7-36) receptor. The pyrrolidide, phosphoramidon, and exendin 9-39 were each added to the cells four hours before the addition of the peptides. The ROS measurements were performed 24 hrs later.
Intracellular reactive oxygen species measurements. The intracellular formation of reactive oxygen species was detected using the fluorescent probe CM-H2DCFDA (Molecular Probes). Cells (1×10^5 ml^−1) were loaded with 10 μM CM-H2DCFDDA, incubated for 45 min at 37° C., and analysed in an HTS 7000 Bio Assay Fluorescent Plate Reader (Perkin Elmer) using the HTSoft program. ROS production was determined from an H2O2 standard curve (10-200 nmol ml^−1).

For data set [2], the system named is endothelial nitric oxide synthase (eNOS). In words: eNOS activity ([3H]L-arginine to [3H]L-citrulline) in cultured vascular endothelial cells. The format is cell-based, bovine. To be noted: BAECs. On the procedure: Cell-culture conditions. For measurement of endothelial nitric oxide activity (eNOS), bovine aortic endothelial cells (BAECs, passage 4-10) were plated in 24 well plates at 200,000 cells /well in Eagle's MEM containing 10% FBS, essential and nonessential amino acids, and antibiotics. Cells were incubated with either 5 mM glucose, 30 mM glucose, 30 mM glucose plus 10 nM GLP-1 (7-36), 30 mM glucose plus 10 nM GLP-1 (7-36) plus 10 μM pyrrolidide (a DPP IV inhibitor) (not shown in FIG. 2), 30 mM glucose plus 10 nM GLP-1 (7-36) plus 10 μM pyrrolidide and 100 μM phosphoramidon (a neutral endopeptidase 24.11 inhibitor), 30 mM glucose+GLP-1 (9-36), and 30 mM glucose plus GLP-1 (9-36) plus 10 nM exendin 9-39, a blocker of the GLP-1 (7-36) receptor. The pyrrolidide, phosphoramidon, and exendin 9-39 were each added to the cells four hours before the addition of the peptides. eNOS activity measurements were performed 48 hrs later. Measurement of eNOS activity. eNOS activity in cells was determined by first incubating cells in L-arginine-deficient, serum-free MEM media for 6 hours. […] The eluate was collected in glass scintillation vials for [^3H]L-citrulline quantitation by liquid scintillation spectroscopy.

The subject of data set [3] is human aortic endothelial cells (HAEC). In words: Nutrient-induced ROS (CM-H2DCFDA) in human aortic endothelial cells. Type of data set: cell-based. The procedure: Cell Culture conditions. Confluent HAECs (passage 1-6) were maintained in EGM2 media containing 0.4% FBS plus growth factor additives. Cells were incubated for varying times with either 5 mM glucose, 12 mM glucose, or 5 mM glucose plus 800 μM oleic acid and 1 mM albumin. In other experiments, cells were incubated with 5 mM glucose, 12 mM glucose, or 5 mM glucose plus 800 μM oleic acid and 1 mM albumin, alone, or with either 100 pM GLP-1 (7-36 NH2), GLP-1 (7-36 NH2)+ the DPPIV inhibitor H-lys(4-nito-Z)-pyrrolidide and the neutral endopeptidase inhibitor phosphoramidon, GLP-1 (9-36 NH2), GLP-1 (9-36 NH2) plus the GLP-1 receptor blocker […], and with GLP-1 (9-36 NH2) with 100× GLP-1 (7-36 NH2) and both DPPIV and NEP inhibitors. Cells were pre incubated for four hrs in cycloheximide (5 ug/ml). In experiments using clotrimazole cells were preincubated for 2.5 hrs in serum free media. Reactive oxygen species quantification. Cells were plated in 96-well cell culture plates. Intracellular reactive oxygen species were detected using the fluorescent probe CM-H2DCFDA (Molecular Probes). Cells were loaded with 10 μM CM-H2DCFDA, incubated for 45 min at 37° C., and analyzed with an HTS 7000 Bio Assay Fluorescent Plate Reader (Perkin Elmer) using the HTSoft program.

The test system of the next data set is rat hepatocytes. Put plainly: Gluconeogenesis (glucose production) in isolated rat liver cells. The format is cell-based. To be noted: liver cells of non-diabetic control strain rats, 1000 pM insulin without GLP-1(9-36), 24 hours. On the procedure:
Liver cells were isolated from non-diabetic control strain rats and from SDF rats. Single-cell suspensions of hepatocytes were obtained from perfusions using the procedure of Berry and Friend (1969) and the perfusion mixture of […] et al. (1979). The cells were plated on tissue culture plastic for 6 hours at a density of 2×10^5 cells per well in a 24-well culture plate that was pre-coated with rat-tail collagen I. During plating, cells were cultured in RPMI 1640 medium supplemented with 10% FBS, penicillin/streptomycin, 10 μg/ml insulin and 10 μM dexamethasone. After allowing for adherence, the media was changed to RPMI with 5 mM glucose, 0.4% FCS, and no insulin or dexamethasone. The cells were allowed to equilibrate overnight in this low-glucose media. The following morning this media was refreshed, insulin alone, or insulin and GLP-1(9-36) were added and treatment lasted another 24 hours. After stimulation, glucose production was measured by incubating the cells for 6 hours in glucose-free RPMI containing 5 mM each of alanine, valine, glycine, pyruvate and lactate. Glucose was subsequently measured with a Trinder assay (Sigma). Averages were obtained of 4 independent measurements.

Where no end group is shown, it is not given here.

As to `CC[C@H](C)[C@H](NC(=O)[C@H](Cc1ccccc1)NC(=O)[C@H](CCC(=O)O)NC(=O)[C@H](CCCCN)NC(=O)[C@H](C)NC(=O)[C@H](C)NC(=O)[C@H](CCC(N)=O)NC(=O)CNC(=O)[C@H](CCC(=O)O)NC(=O)[C@H](CC(C)C)NC(=O)[C@H](Cc1ccc(O)cc1)NC(=O)[C@H](CO)NC(=O)[C@H](CO)NC(=O)[C@@H](NC(=O)[C@H](CC(=O)O)NC(=O)[C@H](CO)NC(=O)[C@@H](NC(=O)[C@H](Cc1ccccc1)NC(=O)[C@@H](NC(=O)CNC(=O)[C@@H](N)CCC(=O)O)[C@@H](C)O)[C@@H](C)O)C(C)C)C(=O)N[C@@H](C)C(=O)N[C@@H](Cc1c[nH]c2ccccc12)C(=O)N[C@@H](CC(C)C)C(=O)N[C@H](C(=O)N[C@@H](CCCCN)C(=O)NCC(=O)N[C@@H](CCCNC(=N)N)C(N)=O)C(C)C` [GLP-1 (9-36)], the “hyperglycemia-induced ROS formation in hepatocytes” value in the data set with hepatocytes is on record as “inhibited”.
As for “GLP-1 (7-36) (HAEGTFTSDVSSYLEGQAAKEFIAWLVKGR-NH2; UniProt P01275 98-127, looked up, fragment)”, the “hyperglycemia-induced ROS production when GLP-1 degradation is blocked” value in data set [1] (30 mM glucose, 10 nM peptide plus 10 μM pyrrolidide (DPP IV inhibitor) with or without 100 μM phosphoramidon (FIG. 1, bars 4 and 5)) is reported as “no effect”. For the same compound, the “hyperglycemia-induced ROS production” value in data set [1] (30 mM glucose, peptide alone, ROS measured 24 hrs later (FIG. 1)) is reported as “completely prevents”. In data set [2] (30 mM glucose, 10 nM peptide plus 10 μM pyrrolidide and 100 μM phosphoramidon (FIG. 2, bar 4)), the “hyperglycemia-induced decrease in eNOS activity when GLP-1 (7-36) degradation is blocked” value is recorded as “no effect”. Further, the “high glucose-induced ROS in the presence of DPP-4 and neutral endopeptidase 24.11 inhibitors” value in data set [3] (12 mM glucose, 2 hrs, with protease inhibitors) is given as “no effect”. For the same compound, the “effect of 100-fold excess bioactive GLP-1 on ability of GLP-1 [9-36amide] to prevent nutrient-induced ROS” value in data set [3] (GLP-1 (9-36 NH2) with 100× GLP-1 (7-36 NH2) and both DPPIV and NEP inhibitors) is listed as “did not affect”.
Consider exendin 9-39 [e9-39], for which, in data set [1] (30 mM glucose plus GLP-1 (9-36) plus 10 nM exendin 9-39), the “effect of GLP-1 receptor blockade on inhibition of hyperglycemia-induced ROS by GLP-1 (9-36)” value is listed as “no effect”. The “effect of GLP-1 receptor blockade on GLP-1 (9-36) protection of eNOS activity” value in data set [2] (30 mM glucose plus GLP-1 (9-36) plus 10 nM exendin 9-39 (FIG. 2, bar 6)) is “no effect”. Also, the “effect of GLP-1R antagonist on ability of GLP-1 degradation products to prevent glucose-induced ROS” value in data set [3] (12 mM glucose, GLP-1 (9-36 NH2) plus receptor blocker) is “no effect”.
As for insulin, in the data set on rat hepatocytes, the “gluconeogenesis, % of control levels” value was 46 % of control levels.

For the origin of these results see US20080194483A1, “GLP-1 (9-36) methods and compositions” (priority 2003, published 2008).
